Results on seven compounds are retold here after US7858650B2, “Medicinal composition for inhalation” (Ono Pharmaceutical Co., Ltd., priority 2004, dated 2010).

The structures appear in SMILES notation.

What all share (format): in vivo
Data set [1] has as its system methacholine-induced airway contractile response. Nature of the data set: Effect of intratracheal administration on methacholine-induced airway contractile response. Particulars: guinea pig, methacholine 10 μg/kg i.v. Here is the method:
(2) Effect of Compound of the Present Invention by Intratracheal Administration on Methacholine-Induced Airway Contractile Response in Guinea Pig
A test substance was intratracheally administered to a guinea pig anesthetized with GOI (laughing gas:oxygen=3:1, 3% isoflurane) using a tube for intratracheal administration. After a certain period of time, the guinea pig was anesthetized with sodium pentobarbital (50 mg/kg, i.p.) and treated with gallamine (10 mg/kg, i.v.). Then, the resulting airway contractile response was determined under artificial respiration. As an airway contraction inducing substance, methacholine (10 μg/kg, i.v.) was used, and the airway contractile response was determined by the Konzett & Roessler method. A ratio of airway contraction (% of maximum) was calculated by taking the airway response obtained by closing a three-way stopcock attached to an upper part of a cannula inserted into the tracheal tube of the guinea pig as 100%.

Data set [2] relates to histamine-induced airway contractile response. Nature of the data set: Inhibitory activity on histamine-induced airway contractile response and hypotensive activity, intravenous or inhalation administration. The note with it: anesthetized guinea pig, histamine 10 μg/kg i.v.; inhalation (5 minutes, nebulizer) versus intravenous administration; FIG. 1. Here is the method:
(1) Inhibitory Activity on Histamine-Induced Airway Contractile Response and Hypotensive Activity of Intravenous Administration or Inhalation Administration in Guinea Pig
A guinea pig anesthetized with sodium pentobarbital (75 mg/kg, i.p.) was treated with gallamine (10 mg/kg, i.v.), and an experiment was carried out under artificial respiration. As an airway contraction inducing substance, histamine (10 μg/kg, i.v.) was used, and the airway contractile response was determined by the Konzett & Roessler method (Konzett, H., Roessler, R. Versuchsanordnung zu untersuchungen ander Bronchial-muskulatur. Arch Exp Pathol Pharmacol 1940; 195:71-74). Additionally, the blood pressure was also measured at the same time. A test substance was administered intravenously or by inhalation (the test substance or a physiological saline solution was atomized using an ultrasonic nebulizer and inhaled directly into the trachea for 5 minutes using an artificial respirator). An inhibition ratio of airway contraction (%) was calculated by taking the airway contraction induced by histamine before administration of the test substance or in a group administered with a physiological saline solution as 0% inhibition. The amount of blood pressure reduction (mmHg) was expressed as the amount of diastolic blood pressure reduction. […] From this, it was shown that the pharmaceutical composition for inhalation of the present invention has an inhibitory effect on airway contraction and its hypotensive effect is small.

The nature of data set [3]: Hypotensive effect of a sustained prodrug of EP2 agonist (blood pressure after intratracheal administration). Particulars: guinea pig, blood pressure measured for 12.5 minutes after administration, FIGS. 6 and 8. Here is the method:
(§1) (3) Bronchodilator Effect and Hypotensive Effect of a Sustained Prodrug of EP2 Agonist
(§2) A guinea pig anesthetized with sodium pentobarbital (50 mg/kg, i.p.) was treated with gallamine (10 mg/kg, i.v.), and an experiment was carried out under artificial respiration. As an airway contraction inducing substance, methacholine (10 μg/kg, i.v.) was used, and the airway contractile response was determined by the Konzett & Roessler method. Compound B was dissolved in an equimolar amount of sodium hydroxide and diluted with a physiological saline solution. Compound F was suspended in a physiological saline solution containing 2% ethanol and 10% Tween 80 to prepare a test substance. The test substance was intratracheally administered using a tube for intratracheal administration. After the administration of the test substance, the blood pressure and the airway contractile response were measured for 12.5 minutes and 3 hours, respectively. A ratio of airway contraction (%) was calculated by taking the airway response obtained by closing a three-way stopcock attached to an upper part of a cannula inserted into the tracheal tube of the guinea pig as 100% contraction. The amount of blood pressure reduction (mmHg) was expressed based on the blood pressure before administration of the test substance.

For data set [4], the system named is methacholine-induced airway contractile response. Nature of the data set: Bronchodilator effect of a sustained prodrug of EP2 agonist (methacholine-induced airway contraction, intratracheal). Particulars: guinea pig, intratracheal administration, methacholine 10 μg/kg i.v., airway contractile response measured for 3 hours; FIGS. 7 and 9. Here is the method: as §1, §2

For `O=C(O)c1csc(SCCN2C(=O)CC[C@@H]2COc2cc(Cl)cc(Cl)c2)n1` [Compound B, 2-[(2-{(2R)-2-[(3,5-dichlorophenoxy)methyl]-5-oxopyrrolidin-1-yl}ethyl)thio]-1,3-thiazole-4-carboxylic acid], the “time after administration at which the bronchodilator effect was lost” value in data set [1] (FIG. 2) is on record as “around 3 hours”. Besides, in data set [1] (FIGS. 2 to 5), the bronchodilator effect entry was “has a bronchodilator effect”. Moreover, in data set [2], the “dissociation between the inhibitory effect on airway contraction and the hypotensive effect” value is recorded as “became larger by inhalation administration than by intravenous administration”.

For `CCC1([C@@H](O)C/C=C/[C@H]2CCC(=O)N2CCSc2nc(C(=O)O)cs2)CCC1` [Compound A, 2-[(2-{(2R)-2-[(1E,4S)-4-(1-ethylcyclobutyl)-4-hydroxybut-1-enyl]-5-oxopyrrolidin-1-yl}ethyl)sulfanyl]-1,3-thiazole-4-carboxylic acid], the “dissociation between the inhibitory effect on airway contraction and the hypotensive effect” value in data set [2] was “became larger by inhalation administration than by intravenous administration”. With `O=C(O)c1csc(SCCN2C(=O)CC[C@@H]2COc2cccc(OC(F)(F)F)c2)n1` [Compound D, 2-{[2-((5R)-2-oxo-5-{[3-(trifluoromethoxy)phenoxy]methyl}pyrrolidin-1-yl)ethyl]sulfanyl}-1,3-thiazole-4-carboxylic acid], in data set [2], the “dissociation between the inhibitory effect on airway contraction and the hypotensive effect” value is recorded as “became larger by inhalation administration than by intravenous administration”. Consider `O=C(OCCCCCCCCCCc1ccccc1)c1csc(SCCN2C(=O)CC[C@@H]2COc2cc(Cl)cc(Cl)c2)n1` [Compound G, 10-phenyldecyl 2-[(2-{(2R)-2-[(3,5-dichlorophenoxy)methyl]-5-oxopyrrolidin-1-yl}ethyl)sulfanyl]-1,3-thiazole-4-carboxylate], for which the “duration of activity (bronchodilator effect), comparison” value (“duration of activity” below) in data set [1] (FIGS. 2 to 5) is given as “more prolonged duration of activity compared with Compound F”.

For `CCCCOC(=O)c1csc(SCCN2C(=O)CC[C@@H]2COc2cc(Cl)cc(Cl)c2)n1` [Compound E, butyl 2-[(2-{(2R)-2-[(3,5-dichlorophenoxy)methyl]-5-oxopyrrolidin-1-yl}ethyl)thio]-1,3-thiazole-4-carboxylate], the “duration of activity” value in data set [1] (FIGS. 2 to 5) is given as “more prolonged duration of activity compared with Compound B”. Take `O=C(O)c1csc(SCCN2C(=O)CC[C@@H]2COc2cccc(C(F)(F)F)c2Cl)n1` [Compound C, 2-{[2-((2R)-2-{[2-chloro-3-(trifluoromethyl)phenoxy]methyl}-5-oxopyrrolidin-1-yl)ethyl]sulfanyl}-1,3-thiazole-4-carboxylic acid]: the “dissociation between the inhibitory effect on airway contraction and the hypotensive effect” value in data set [2] was “became larger by inhalation administration than by intravenous administration”. With `CCCCCCCCCCCOC(=O)c1csc(SCCN2C(=O)CC[C@@H]2COc2cc(Cl)cc(Cl)c2)n1` [Compound F, undecyl 2-[(2-{(2R)-2-[(3,5-dichlorophenoxy)methyl]-5-oxopyrrolidin-1-yl}ethyl)sulfanyl]-1,3-thiazole-4-carboxylate], the “duration of activity” value in data set [1] (FIGS. 2 to 5) was “more prolonged duration of activity compared with Compound F”. The “change of blood pressure (hypotensive effect)” value in data set [3] is listed as “did not change the blood pressure”. Also, the “duration of bronchodilator activity, comparison” value in data set [4] is reported as “prolonged duration of bronchodilator activity compared with Compound B”.
